Here are results for ten compounds from ChEMBL document CHEMBL1133475, “Inhibitors of NF-kappaB and AP-1 gene expression: SAR studies on the pyrimidine portion of 2-chloro-4-trifluoromethylpyrimidine-5-[N-(3', 5'-bis(trifluoromethyl)phenyl)carboxamide]” (J Med Chem, 2000).

For the series, the species on record is Homo sapiens. Nature of the series: Compound was tested for permeability in Caco-2 cells by HPLC method. It is filed as ADME, cell-based.

In turn, `O=C(Nc1cc(C(F)(F)F)cc(C(F)(F)F)c1)c1cnc(Cl)nc1-c1cccs1` gave a Permeability of 2.1 ×10⁻⁶ cm/s.

Turning to `O=C(Nc1cc(C(F)(F)F)cc(C(F)(F)F)c1)c1cnc(F)nc1C(F)(F)F`, the Permeability amounted to 1.9 ×10⁻⁶ cm/s.

As to `Cc1nc(Cl)ncc1C(=O)Nc1cc(C(F)(F)F)cc(C(F)(F)F)c1`, the Permeability came to 6.2 ×10⁻⁶ cm/s.

`CCCc1nc(Cl)ncc1C(=O)Nc1cc(C(F)(F)F)cc(C(F)(F)F)c1` displayed a Permeability of 3.1 ×10⁻⁶ cm/s.

The compound `O=C(Nc1cc(C(F)(F)F)cc(C(F)(F)F)c1)c1cnc(Cl)nc1C(F)(F)F` gave a Permeability of 1.1 ×10⁻⁶ cm/s.

In turn, `O=C(Nc1cc(C(F)(F)F)cc(C(F)(F)F)c1)c1cnc(Cl)nc1` gave a Permeability of 6.1 ×10⁻⁶ cm/s.

`CCc1nc(Cl)ncc1C(=O)Nc1cc(C(F)(F)F)cc(C(F)(F)F)c1` showed a Permeability of 5.8 ×10⁻⁶ cm/s.

`O=C(Nc1cc(C(F)(F)F)cc(C(F)(F)F)c1)c1cnc(Cl)nc1Cl` registered a Permeability of 3.1 ×10⁻⁶ cm/s.

As to `O=C(Nc1cc(C(F)(F)F)cc(C(F)(F)F)c1)c1cnc(Cl)nc1C(F)(F)C(F)(F)F`, the Permeability came out at 0.9 ×10⁻⁶ cm/s.

The compound `O=C(Nc1cc(C(F)(F)F)cc(C(F)(F)F)c1)c1cnc(Cl)nc1-c1ccccc1` had a Permeability of 0.9 ×10⁻⁶ cm/s.
